Measured values published in the supplement of paper PMC3974653.
Structures can show the parent of a compound that is named as a salt.

Test system: MTT (mouse pheochromocytoma)
Experiment: IC50 of cell viability (ATP content)
Settings: (24 or 48 h)
Summary of the method: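 CellTiter-Glo ATP luminescence, read after 15 minutes, was used to assess MTT mouse pheochromocytoma cells treated for 24 or 48 hrs with library compounds (final 0.5 nM to 46 µM, 8 concentrations). The cells had been plated at 5 µl of 200,000 cells/ml per well in white 1536-well plates in DMEM with 5% FBS and 1% horse serum and cultured overnight at 37°C, 5% CO2. Normalisation set positive-control wells to 100% and DMSO wells to 0%. The IC50 was then determined by four-parameter logistic fitting.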

Compound	IC50 of cell viability
OC[C@@H]1CC[C@H](n2cnc3c(O)ncnc32)O1 [Didanosine]	> 46 µM
ClC/1=C(Cl)/[C@@]2(Cl)[C@H]3[C@H]4C[C@H]([C@@H]5O[C@H]45)[C@H]3[C@]1(Cl)C2(Cl)Cl [Dieldrin]	> 46 µM
C/C=C(\C(=C\C)c1ccc(O)cc1)c1ccc(O)cc1 [Dienestrol]	> 46 µM
CCOC(=O)c1ccccc1C(=O)OCC [Diethyl phthalate]	> 46 µM
CCN(CC)C(=O)N1CCN(C)CC1.O=C(O)CC(O)(CC(=O)O)C(=O)O [Diethylcarbamazine citrate]	> 46 µM
COCCOCCO [Diethylene glycol monomethyl ether]	> 46 µM
NCCNCCN [Diethylenetriamine]	> 46 µM
NC(=O)Oc1ccc(Cc2ccccc2)cc1 [Difenano]	> 46 µM
C[C@H]1C[C@H]2[C@@H]3C[C@H](F)C/4=C/C(=O)/C=C\[C@]4(C)[C@@]3(F)[C@@H](O)C[C@]2(C)[C@@]1(OC(C)=O)C(=O)COC(C)=O [Diflorasone diacetate]	> 46 µM
O=C(O)c1cc(-c2ccc(F)cc2F)ccc1O [Diflunisal]	> 46 µM
O=C1c2ccccc2CN2C(=O)c3ccccc3CN12 [Diftalone]	> 46 µM
CC1OC(OC2C(O)CC(OC3C(O)CC(OC4CCC5(C)C(CCC6C5CCC5(C)C(C7=CC(=O)OC7)CCC65O)C4)OC3C)OC2C)CC(O)C1O (configuration not stated) [Digitoxin]	> 46 µM
C[C@H]1O[C@H](C[C@H](O)[C@@H]1O)O[C@H]2[C@@H](O)C[C@@H](O[C@@H]2C)O[C@H]3[C@@H](O)C[C@@H](O[C@@H]3C)O[C@H]4CC[C@@]5(C)[C@H](CC[C@@H]6[C@@H]5C[C@@H](O)[C@]7(C)[C@H](CC[C@]67O)C/8=C/C(=O)OC8)C4 [Digoxin]	> 46 µM
CC(C)CC1C(=O)N2CCCC2C2(O)OC(NC(=O)C3CC4c5cccc6[nH]cc(c56)CC4N(C)C3)(C(C)C)C(=O)N12 (configuration not stated) [Dihydroergocriptine]	> 46 µM
CC(C)[C@@]1(NC(=O)[C@@H]2C[C@@H]3c4cccc5[nH]cc(c45)C[C@H]3N(C)C2)O[C@@]2(O)[C@@H]3CCCN3C(=O)[C@H](Cc3ccccc3)N2C1=O [Dihydroergocristine]	> 46 µM
COc1ccc2c3c1OC1[C@H](O)CCC4[C@@H](C2)N(C)CC[C@]314 (some centres not stated) [Dihydroisocodeine]	> 46 µM
CN1CC[C@]23c4c5ccc(O)c4OC2C(O)CCC3[C@H]1C5 (some centres not stated) [Dihydromorphine]	> 46 µM
CC(C)NC(C)C [Diisopropyl amine]	> 46 µM
C=Cc1ccc(C=C)cc1.C=Cc1ccccc1.CC(C)N(Cc1ccccc1)C(C)C [Diisopropylaminomethyl-polystyrene]	> 46 µM
CC1(C)OC[C@@H]2O[C@@]3(C(=O)O)OC(C)(C)O[C@@H]3[C@@H]2O1 [Dikegulac]	> 46 µM
CN(C(=O)C(Cl)Cl)c1ccc(OC(=O)c2ccco2)cc1 [Diloxanide furoate]	> 46 µM

Compound	IC50 of cell viability
Cc1ccc2c(c1)[C@]13CCCC[C@@H]1[C@@H](C2)N(C)CC3 [Dimemorfan phosphate]	> 46 µM
CC(O)CN(C)C (configuration not stated) [Dimepranolum]	> 46 µM
CN(C)CCCN1c2ccccc2C(C)(C)c2ccccc21 [Dimetacrine]	> 46 µM
CCCCc1cc2ccccc2c(OCCN(C)C)n1 [Dimethisoquin hydrochloride]	> 46 µM
CC(CN1c2ccccc2Sc2ccc([S+](=O)([O-])N(C)C)cc21)N(C)C (configuration not stated) [Dimethothiazine]	> 46 µM
COC(=O)C(Cl)C(=O)OC [Dimethyl chloromalonate]	> 46 µM
COC(=O)c1ccccc1C(=O)OC [Dimethyl phthalate]	> 46 µM
Nc1ccc(C(=O)Nc2ccccc2N)cc1 [Dinaline]	> 46 µM
CCCCC[C@H](O)/C=C\[C@H]1[C@H](C/C=C\CCCC(=O)O)[C@@H](O)C[C@H]1O.COC(N)(CO)CO [Dinoprost trometamol]	> 46 µM
CCCCC[C@H](O)/C=C/[C@@H]1[C@@H](C/C=C\CCCC(=O)O)[C@@H](O)C[C@H]1O [Dinoprost tromethamine]	> 46 µM
O=[N+]([O-])c1cccc([S+](=O)([O-])NCCN[S+](=O)([O-])c2cccc([N+](=O)[O-])c2)c1 [Dinsed]	> 46 µM
CCCCCCCCOC(=O)c1ccccc1C(=O)OCCCCCCCC [Dioctyl phthalate]	> 46 µM
CCCC[C@@H](CC)COC(=O)C[C@H](C(=O)OC[C@H](CC)CCCC)S(=O)(=O)[O-] [Dioctyl sulfosuccinate sodium salt]	> 46 µM
COc1ccc(C(=O)c2ccccc2O)c(O)c1 [Dioxybenzone]	> 46 µM
O=C(Nc1ccccc1)OC[C@H](CN1CCCCC1)OC(=O)Nc1ccccc1 [Diperodon hydrochloride]	> 46 µM
C[N+]1(C)CCC(=C(c2ccccc2)c2ccccc2)CC1 [Diphemanil methylsulfate]	> 46 µM
CN(C)CCOC(c1ccccc1)c1ccccc1 [Diphenhydramine]	> 46 µM
OC(CCCN1CCCCC1)(c1ccccc1)c1ccccc1 [Diphenidol]	> 46 µM
CCOC(=O)C1(c2ccccc2)CCN(CCC(C#N)(c2ccccc2)c2ccccc2)CC1 [Diphenoxylate]	> 46 µM
O=C(Oc1ccccc1)c1cccc(C(=O)Oc2ccccc2)c1 [Diphenyl isophthalate]	> 46 µM
CN1CCC(OC(c2ccccc2)c2ccccc2)CC1 [Diphenylpyraline hydrochloride]	> 46 µM

Compound	IC50 of cell viability
CNC[C@H](O)c1ccc(OC(=O)C(C)(C)C)c(OC(=O)C(C)(C)C)c1 [Dipivefrin hydrochloride]	> 46 µM
Cn1c(=O)c2c(ncn2C[C@@H](O)CO)n(C)c1=O [Diprophylline]	> 46 µM
[Na+].CN(C[S]([O-])(=O)=O)\C1=C(/C)N(C)N(C1=O)C2=CC=CC=C2 [Dipyrone]	> 46 µM
C[Si](C)(C)O[Si](C)(C)C [Disiloxane, hexamethyl-]	> 46 µM
CC(C)N(CC[C@@](C(N)=O)(c1ccccc1)c1ccccn1)C(C)C [Disopyramide]	> 46 µM
CCOC(=S)SSC(=S)OCC [Dixanthogen]	> 46 µM
CC(=O)O[C@@]12CO[C@@H]1C[C@H](O)[C@]3(C)[C@@H]2[C@H](OC(=O)C4=CC=CC=C4)[C@]5(O)C[C@H](OC(=O)C(O)[C@@H](NC(=O)OC(C)(C)C)C6=CC=CC=C6)C(=C(/[C@@H](O)C3=O)C5(C)C)/C (some centres not stated) [Docetaxel]	> 46 µM
CCCCCCCCCC(CC)c1ccc(S(=O)(=O)[O-])cc1.[Na+] (configuration not stated) [Dodecylbenzenesulfonic acid, sodium salt]	> 46 µM
CN(CCOc1ccc(NS(C)(=O)=O)cc1)CCc1ccc(NS(C)(=O)=O)cc1 [Dofetilide]	> 46 µM
Oc1ccc(CCNCCCCCCNCCc2ccccc2)cc1O [Dopexamine]	> 46 µM
CO[C@H]1C[C@@H](O[C@@H]2[C@@H](C)O[C@@H](O[C@@H]3/C(C)=C/CC4C[C@@H](C[C@]5(C=C[C@@H](C)[C@H](C6CCCCC6)O5)O4)OC(=O)[C@@H]4C=C(C)[C@@H](O)[C@H]5OC/C(=C\C=C\[C@@H]3C)[C@]54O)C[C@H]2OC)O[C@@H](C)[C@@H]1O [Doramectin]	> 46 µM
CCN[C@@H]1C[C@H](C)[S+](=O)([O-])c2sc([S+](N)(=O)[O-])cc21 [Dorzolamide hydrochloride]	> 46 µM
CN(C)CC/C=C1\c2ccccc2CSc2ccccc21 [Dosulepin hydrochloride]	> 46 µM
COc1cc2nc(N3CCN(C(=O)[C@H]4COc5ccccc5O4)CC3)nc(N)c2cc1OC.C[S+](=O)([O-])O [Doxazosin mesylate]	> 46 µM
CN(C)CC/C=C1\c2ccccc2COc2ccccc21 [Doxepin hydrochloride]	> 46 µM
C[C@H]1O[C@H]([C@H](O)[C@@H]1O)N2\C=C(F)/C(=O)NC2=O [Doxifluridine]	> 46 µM
Cn1c(=O)c2c(ncn2CC2OCCO2)n(C)c1=O [Doxofylline]	> 46 µM
C[C@H]1[C@H]\2[C@H](O)[C@H]3[C@H](N(C)C)\C(=C(\C(N)=O)C(=O)[C@]3(O)\C(=C2C(=O)C4=C1C=CC=C4O)O)O [Doxycycline hydrochloride]	> 46 µM
CN(C)CCO[C@](C)(c1ccccc1)c1ccccn1.O=C(O)CCC(=O)O [Doxylamine succinate]	> 46 µM
Cc1ccc(O)c(-n2nc3ccccc3n2)c1 [Drometrizole]	> 46 µM
